Experimental data taken from ChEMBL document CHEMBL5113449, “Evaluation of aminopyrrolidine amide to improve chloride transport in CFTR-defective cells” (Bioorg Med Chem Lett, 2022).
Activity calls are given as the source filed them. The rule behind the calls is not given here.

Columns and labels:
[1] = test system: CFBE41o-; experiment: Induction of UPR in human CFBE41o- cells expressing CFTR P.Phe508del mutant assessed as upregulation of XBP1 mRNA expression by RT-PCR analysis; assay type: functional, cell-based
[2] = test system: CFBE41o-; experiment: Induction of UPR in human CFBE41o- cells expressing CFTR P.Phe508del mutant assessed as upregulation of PERK mRNA expression by RT-PCR analysis; assay type: functional, cell-based
[3] = test system: CFBE41o-; experiment: Induction of UPR in human CFBE41o- cells expressing CFTR P.Phe508del mutant assessed as upregulation of IRE1 mRNA expression by RT-PCR analysis; assay type: functional, cell-based
[4] = test system: CFBE41o-; experiment: Upregulation of cleaved form of ATF6 protein expression in human CFBE41o- cells expressing CFTR P.Phe508del mutant by Western blot analysis; assay type: functional, cell-based
[5] = test system: CFBE41o-; experiment: Upregulation of ATF6 protein expression in human CFBE41o- cells expressing CFTR P.Phe508del mutant by Western blot analysis; assay type: functional, cell-based
[6] = test system: CFBE41o-; experiment: Upregulation of BiP protein expression in human CFBE41o- cells expressing CFTR P.Phe508del mutant by Western blot analysis; assay type: functional, cell-based
[7] = Cytotoxicity against human CFBE41o- cells expressing CFTR P.Phe508del mutant at 10 uM incubated for 48 hrs by MTT assay; assay type: toxicity, cell-based
[8] = Restoration of CFTR chloride channel activity in human CFBE41o- cells expressing CFTR P.Phe508del mutant assessed as increase in channel function by measuring Cl- current at 10 uM at -80 mV holding potential incubated for 48 hrs by whole cell patch clamp assay (reference value: 32.98 +/- 14.71 pA/pF); assay type: functional
[9] = test system: CFBE41o-; experiment: Restoration of CFTR chloride channel activity in human CFBE41o- cells expressing CFTR P.Phe508del mutant assessed as increase in transcription of CFTR P.Phe508del mutant mRNA expression by RT-qPCR analysis; assay type: functional, cell-based
[10] = test system: BHK; experiment: Restoration of CFTR chloride channel activity in […] BHK cells expressing 3HA-epitope tagged CFTR P.Phe508del mutant assessed as increase in exportation of mutant CFTR to membrane by measuring mature CFTR by immunoblot analysis; assay type: functional, cell-based

CCN(CC)Cc1ccc(C(=O)N(CCc2ccccc2OC)[C@@H]2CCNC2)cc1
Activity [1]: Active
Activity [2]: Active
Activity [3]: Active
Activity [4]: Active
Activity [5]: Active
Activity [6]: Active
Activity [7]: Non-Toxic
Activity [8]: 82.67 pA/pF
Activity [9]: Active
Activity [10]: Active
